Here are results for 20 molecules from patent US12091405B2, “Substituted pyrazole compounds as indoleamine 2,3-dioxygenase inhibitors” (Merck Sharp & Dohme LLC, priority 2018, dated 2024).

Molecules are shown by their SMILES.

The term IC50 denotes the point on the concentration scale where inhibition reaches its midpoint.

The test deals with IDO1 (Homo sapiens, UniProt P14902). The experiment in a line: IDO1 Cellular Assay in HeLa Cells Stimulated with IFNγ. In kind it is cell-based. The note with it: IFNγ 100 ng/mL, 300 uM L-tryptophan, about 48 hours, fluorescence readout, read-out: IDO1 HELA Cell Assay, IC50. The procedure: Biological Assays IDO1 Cellular Assay in HeLa Cells Stimulated with IFNγ
IDO1, sequence (P14902 whole entry): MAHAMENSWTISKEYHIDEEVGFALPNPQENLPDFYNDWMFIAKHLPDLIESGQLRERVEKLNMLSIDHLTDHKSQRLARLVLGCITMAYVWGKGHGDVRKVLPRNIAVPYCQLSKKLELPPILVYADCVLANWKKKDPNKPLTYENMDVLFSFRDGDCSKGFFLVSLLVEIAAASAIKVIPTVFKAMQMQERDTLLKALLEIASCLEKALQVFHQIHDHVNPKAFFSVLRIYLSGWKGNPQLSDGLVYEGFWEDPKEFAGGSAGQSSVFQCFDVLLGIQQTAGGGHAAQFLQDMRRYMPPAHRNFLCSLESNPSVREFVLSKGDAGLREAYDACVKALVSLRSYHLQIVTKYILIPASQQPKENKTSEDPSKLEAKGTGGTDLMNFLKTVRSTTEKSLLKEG
HeLa cells were cultured in complete HeLa culture medium (90% EMEM, 10% heat-inactivated fetal bovine serum) and expanded to about 1×10^9 cells. The cells were then collected and frozen down at 1×10^7 cells/vial in 1 mL frozen medium (90% complete HeLa culture medium, 10% DMSO).
Compounds to be tested were serially diluted in ten 3-fold steps in DMSO starting from 10 mM DMSO stocks in Echo low volume plate(s). Compound dilutions or DMSO alone were then dispensed from the dilution plate(s) into Greiner black 384-well assay plate(s) (catalog #781086, 50 nL/well) using an Echo 550 acoustic liquid handler (Labcyte).
Frozen HeLa cells were thawed and transferred into HeLa assay medium (99% complete HeLa culture medium, 1% Pen/Strep) with 20 mL medium/vial of cells. The cells were spun down at 250 g in a table top centrifuge for 5 min and suspended in same volume of HeLa assay medium. The cells were then counted and adjusted to a density of 2×10^5 cells/mL in HeLa assay medium. Sterile L-tryptophan were added to the cells with final concentration of 300 uM L-tryptophan. A small aliquot (2 mL/plate) of HeLa cells were set aside and were not treated with IFNγ, to serve as the Max-E control.
HeLa cells with and without IFNγ were dispensed to the respective wells of 384-well assay plates containing the compounds. The plates were incubated for about 48 hours at a 37° C., 5% CO2 incubator. Afterwards, 12 μL of 0.5 M methyl isonipecotate in dimethyl sulfoxide were added into each well and the plates were sealed and incubated at 37° C. without CO2 overnight. The plates were centrifuged for 1 min at 200×g. The resulting fluorescence was measured in a Spectramax plate reader (Molecular Devices) with a 400 nm excitation filter and a 510 nm emission filter.
The fluorescence intensity of each well was corrected for the background observed in wells with non-IFNγ-treated cells and was expressed as a fraction of the intensity observed in wells of IFNγ-treated cells and DMSO only. Potencies were calculated by linear least squares fit to the four parameter logistic IC50 equation.
Compounds disclosed herein generally have IC50 of about 0.1 nM to about 20,000 nM, or more specifically, about 1 nM to about 10,000 nM, or more specifically, about 5 nM to about 5,000 nM, or more specifically, about 10 nM to about 1,000 nM, or still more specifically, about 10 nM to about 500 nM.

Regarding `Cc1cccc(C2CCN(C(=O)Cn3nc(C(=O)N4CCC(O)CC4)c4c3CCCC4)CC2)c1C` [Example 34, 1-(4-(2,3-dimethylphenyl)piperidin-1-yl)-2-(3-(4-hydroxypiperidine-1-carbonyl)-4,5,6,7-tetrahydro-1H-indazol-1-yl)ethanone], the IC50 was found to be 1.2 nM.

Consider `Cc1cccc(C2CCN(C(=O)Cn3nc(C(=O)N4CCC(OCCO)CC4)c4c3CCCC4)CC2)c1C` [Example 38, 1-(4-(2,3-dimethylphenyl)piperidin-1-yl)-2-(3-(4-(2-hydroxyethoxy)piperidine-1-carbonyl)-4,5,6,7-tetrahydro-1H-indazol-1-yl)ethanone], for which the IC50 amounted to 1.9 nM.

With `Cc1cccc(C2CCN(C(=O)Cn3nc(C(=O)N4CC[C@@H](O)[C@H](C)C4)c4c3CCC4)CC2)c1C` [Example 39, 1-(4-(2,3-dimethylphenyl)piperidin-1-yl)-2-(3-((3R,4R)-4-hydroxy-3-methylpiperidine-1-carbonyl)-5,6-dihydrocyclopenta[c]pyrazol-1(4H)-yl)ethan-1-one], the concentration for half-maximal inhibition (IC50) was determined as 1.9 nM.

For the molecule `Cc1cccc(C2CCN(C(=O)Cn3nc(C(=O)N4CCC(C)(O)CC4)c4c3CCC4)CC2)c1C` [Example 40, 1-(4-(2,3-dimethylphenyl)piperidin-1-yl)-2-(3-(4-hydroxy-4-methylpiperidine-1-carbonyl)-5,6-dihydrocyclopenta[c]pyrazol-1(4H)-yl)ethan-1-one], the IC50 was found to be 2.8 nM.

Turning to `Cc1cccc(C2CCN(C(=O)Cn3nc(C(=O)N4CCC(O)CC4)c4c3CCC4)CC2)c1C` [Example 41, 1-(4-(2,3-dimethylphenyl)piperidin-1-yl)-2-(3-(4-hydroxypiperidine-1-carbonyl)-5,6-dihydrocyclopenta[c]pyrazol-1(4H)-yl)ethan-1-one], the IC50 stood at 3.6 nM.

As for `Cc1cccc(C2CCN(C(=O)Cn3nc(C(=O)N4CC[C@@H](O)[C@H](F)C4)c4c3CCC4)CC2)c1C` [Example 45, 1-(4-(2,3-dimethylphenyl)piperidin-1-yl)-2-(3-((3R,4R)-3-fluoro-4-hydroxypiperidine-1-carbonyl)-5,6dihydrocyclopenta[c]pyrazol-1(4H)-yl)ethanone], the IC50 amounted to 8.1 nM.

Consider `Cc1cccc(C2CCN(C(=O)Cn3nc(C(=O)N4CCOCC4)c4c3CCC4)CC2)c1C` [Example 46, 1-(4-(2,3-dimethylphenyl)piperidin-1-yl)-2-(3-(morpholine-4-carbonyl)-5,6-dihydrocyclopenta[c]pyrazol-1(4H)-yl)ethan-1-one], for which the IC50 worked out at 16 nM.

`Cc1cccc(C2CCN(C(=O)Cn3nc(C(=O)N4CCN(C(=O)CO)CC4)c4c3CCC4)CC2)c1C` [Example 47, 1-(4-(2,3-dimethylphenyl)piperidin-1-yl)-2-(3-(4-(2-hydroxyacetyl)piperazine-1-carbonyl)-5,6-dihydrocyclopenta[c]pyrazol-1(4H)-yl)ethanone]: the IC50 was 17.6 nM.

For `Cc1cccc(C2CCN(C(=O)Cn3nc(C(=O)N4CC[C@H](O)C4)c4c3CCC4)CC2)c1C` [Example 48, (S)-1-(4-(2,3-dimethylphenyl)piperidin-1-yl)-2-(3-(3-hydroxypyrrolidine-1-carbonyl)-5,6-dihydrocyclopenta[c]pyrazol-1(4H)-yl)ethan-1-one], the IC50 is 27 nM.

Turning to `Cc1cccc(C2CCN(C(=O)Cn3nc(C(=O)N4CC[C@](C)(O)C4)c4c3CCC4)CC2)c1C` [Example 49, (S)-1-(4-(2,3-dimethylphenyl)piperidin-1-yl)-2-(3-(3-hydroxy-3-methylpyrrolidine-1-carbonyl)-5,6-dihydrocyclopenta[c]pyrazol-1(4H)-yl)ethan-1-one], the IC50 came to 29.8 nM.

As for `Cc1cccc(C2CCN(C(=O)Cn3nc(C(=O)N4CC(C)(O)C4)c4c3CCC4)CC2)c1C` [Example 50, 1-(4-(2,3-dimethylphenyl)piperidin-1-yl)-2-(3-(3-hydroxy-3-methylazetidine-1-carbonyl)-5,6-dihydrocyclopenta[c]pyrazol-1(4H)-yl)ethan-1-one], the IC50 came to 40.1 nM.

With `Cc1cccc(C2CCN(C(=O)Cn3nc(C(=O)N4CC[C@@H](O)C4)c4c3CCC4)CC2)c1C` [Example 51, (R)-1-(4-(2,3-dimethylphenyl)piperidin-1-yl)-2-(3-(3-hydroxypyrrolidine-1-carbonyl)-5,6-dihydrocyclopenta[c]pyrazol-1(4H)-yl)ethan-1-one], the IC50 is 45.5 nM.

Consider `Cc1cc(F)ccc1C1CCN(C(=O)Cn2nc(C(=O)N3CC[C@H](O)[C@@H](F)C3)c3c2CCC3)CC1` [Example 52, 1-(4-(4-fluoro-2-methylphenyl)piperidin-1-yl)-2-(3-((3S,4S)-3-fluoro-4-hydroxypiperidine-1-carbonyl)-5,6-dihydrocyclopenta[c]pyrazol-1(4H)-yl)ethanone], for which the IC50 is 111 nM.

Turning to `Cc1cc(F)ccc1C1CCN(C(=O)Cn2nc(C(=O)N3CCC(O)(CF)CC3)c3c2CCC3)CC1` [Example 53, 1-(4-(4-fluoro-2-methylphenyl)piperidin-1-yl)-2-(3-(4-(fluoromethyl)-4-hydroxypiperidine-1-carbonyl)-5,6-dihydrocyclopenta[c]pyrazol-1 (4H)-yl)ethanone], the IC50 stood at 114 nM.

For `Cc1cc(F)ccc1C1CCN(C(=O)Cn2nc(C(=O)N3CC[C@@H](O)[C@H](F)C3)c3c2CCC3)CC1` [Example 54, 1-(4-(4-fluoro-2-methylphenyl)piperidin-1-yl)-2-(3-((3R,4R)-3-fluoro-4-hydroxypiperidine-1-carbonyl)-5,6-dihydrocyclopenta[c]pyrazol-1(4H)-yl)ethanone], the IC50 was determined as 162 nM.

Take `Cc1cc(F)ccc1C1CCN(C(=O)Cn2nc(C(=O)N3CC[C@@H](O)[C@@H](F)C3)c3c2CCC3)CC1` [Example 55, 1-(4-(4-fluoro-2-methylphenyl)piperidin-1-yl)-2-(3-((3S,4R)-3-fluoro-4-hydroxypiperidine-1-carbonyl)-5,6-dihydrocyclopenta[c]pyrazol-1(4H)-yl)ethanone]: the IC50 was 166 nM.

In the case of `Cc1cc(F)ccc1C1CCN(C(=O)Cn2nc(C(=O)N3CC[C@H](O)[C@H](F)C3)c3c2CCC3)CC1` [Example 56, 1-(4-(4-fluoro-2-methylphenyl)piperidin-1-yl)-2-(3-((3R,4S)-3-fluoro-4-hydroxypiperidine-1-carbonyl)-5,6-dihydrocyclopenta[c]pyrazol-1(4H)-yl)ethanone], the IC50 stood at 199 nM.

With `Cc1cc(F)ccc1C1CCN(C(=O)Cn2nc(C(=O)N3CCN(C(=O)CO)CC3)c3c2CCC3)CC1` [Example 57, 1-(4-(4-fluoro-2-methylphenyl)piperidin-1-yl)-2-(3-(4-(2-hydroxyacetyl)piperazine-1-carbonyl)-5,6-dihydrocyclopenta[c]pyrazol-1(4H)-yl)ethanone], the IC50 was 289 nM.

With `Cc1cc(F)ccc1C1CCN(C(=O)Cn2nc(C(=O)N3CCO[C@H](CO)C3)c3c2CCC3)CC1` [Example 58, (S)-1-(4-(4-fluoro-2-methylphenyl)piperidin-1-yl)-2-(3-(2-(hydroxymethyl)morpholine-4-carbonyl)-5,6-dihydrocyclopenta[c]pyrazol-1(4H)-yl)ethanone], the IC50 amounted to 454 nM.

On to `Cc1cccc(C2CCN(C(=O)Cn3nc(C(=O)N4CC[C@H](O)[C@H](F)C4)c4c3CCC4)CC2)c1C` [Example 59, 1-(4-(2,3-dimethylphenyl)piperidin-1-yl)-2-(3-((3R,4S)-3-fluoro-4-hydroxypiperidine-1-carbonyl)-5,6-dihydrocyclopenta[c]pyrazol-1(4H)-yl)ethanone], for which the IC50 came to 1.8 nM.
